Laboratory results published in patent publication US9447136B2, “Semisynthetic derivatives of Nystatin A1” (BLIRT S.A., priority 2012, dated 2016).

How the values were obtained:
[1] = tested on: Candida albicans ATCC 10231; assay: Antifungal activity in vitro, serial dilution in RPMI 1640; type: cell-based; details: Table 2A, RPMI 1640, pH 7.0; for Antifungal activity Candida albicans ATCC 10231 IC50: A531 50% of control; for Antifungal activity Candida albicans ATCC 10231 MIC: A531 at most 20% of control
Method in brief: (§1)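 Optical density at 531 nm served as the growth read-out after serial dilution of compound in RPMI 1640 buffered to pH 7.0 per the NCCLS M27-A2 standard. IC50 values came from concentration–A531 plots (50% of control), MIC values from the lowest concentration holding A531 at no more than 20% of control.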

[2] = tested on: Candida tropicalis KKP 334; assay: as above; type: cell-based; details: Table 2A; RPMI 1640, pH 7.0
Method in brief: as §1

[3] = tested on: Saccharomyces cerevisiae ATCC 9763; assay: as above; type: cell-based; details: Table 2A; RPMI 1640, pH 7.0; A531 at most 20% of control
Method in brief: as §1

Candida krusei DSM 6128 = assay: as above; type: cell-based; details: Table 2A; RPMI 1640, pH 7.0
Method in brief: as §1

[4] = tested on: Candida glabrata DSM 11226; assay: as above; type: cell-based; details: Table 2A; RPMI 1640, pH 7.0
Method in brief: as §1

[5] = tested on: Candida lusitaniae DSM 70102; assay: as above; type: cell-based; details: Table 2A; RPMI 1640, pH 7.0
Method in brief: as §1

CCRF-CEM = assay: Cytotoxic activity against mammalian cells in tissue culture (MTT); type: cell-based, human; details: CCRF-CEM, 120 h, MTT
Description: (§2) For examinations were used selected cell lines: CCRF-CEM—human acute lymphoblastic leukemia; HepG2—human malignant hepatoma; LLC-PK1—epithelial cell of pig kidney; All lines were from ATCC collection.
(§3) The study are conducted using described below methods of culturing and determination of cytotoxic activity.
(§4) CCRF-CEM cells were cultured in medium RPMI 1640+10% fetal bovine serum (FBS), LLC-PK1 cells in medium Medium 199+3% FBS, HepG2 cells in medium MEM+10% FBS. All media contained 100 μg/ml of penicillin G and streptomycin. 24-wells microplates containing appropriate medium were inoculated with the cells in amount of 1.2×10^4 cells/well and allowed to stand overnight. Next, tested compounds as solution in dimethylsulfoxide (DMSO) were added in volume of 10 μl (serial 2× dilutions). To control well 10 μl of DMSO was added. Microplates with cell suspensions were incubated for 120 h at temperature 37° C. at atmosphere of 95%/5% CO2. After incubation, to all wells 200 μl of solution of 3-(4,5-dimethylthiazole-2-yl)-2,5-diphenylotetrazole bromide (MTT) in PBS (4 mg/ml) was added and plates were further incubated for 4 h at 37° C. Next, to dissolve crystals of formazane 1 ml of DMSO was added and absorption of solutions was measured at the wavelength λ=540 nm (A540), using a microplates reader (Victor^3, Perkin-Wallac). […] From these graphs IC50 values were read, that is concentration of tested compound in the presence at which A540 value is half of A540 value measured in the control sample.

HepG2 = assay: as above; type: cell-based, human; details: HepG2, 120 h, MTT
Description: as §2, §3, §4

LLC-PK1 = assay: as above; type: cell-based, pig; details: LLC-PK1, 120 h, MTT
Description: as §2, §3, §4

Human erythrocytes = assay: Hemotoxicity (hemolytic activity); details: human erythrocytes; concentration causing 10% of hemolysis
Description: The hemotoxicity determination were carried out by the serial dilutions method, according to the procedure described earlier (Ślisz, M., et al., E., J Antibiot 57: 669-678 (2004)). Human erythrocytes were suspensed in the solution of saline to obtain a cell density of suspension 2×10^7/ml. Suitable amounts of diluted solutions of compounds were added to the cell suspension in tubes and were incubated at 37° C. for 30 minutes and then centrifuged (1700×g, 10 min, 4° C.). The concentration of hemoglobin in supernatant after centrifugation of erythrocytes suspension were determined by measuring the absorbance at wavelength λ=540 nm (A540). The maximum level of hemolysis was obtained after incubation of cells suspension in the presence of 0.1% Tritone X-100 (control sample). […] From these graphs, the EH50 values were read which are the interpolated concentrations of compound, for which the A540 value is exactly 50% of the A540 value measured for the control sample.

SMILES | Antifungal activity Candida albicans ATCC 10231 IC50 [1] [µg/mL] | Antifungal activity Candida albicans ATCC 10231 MIC [1] [µg/mL] | Antifungal activity Candida tropicalis KKP 334 MIC [2] [µg/mL] | Antifungal activity Saccharomyces cerevisiae ATCC 9763 MIC [3] [µg/mL] | Antifungal activity Candida krusei DSM 6128 MIC (Candida krusei DSM 6128) [µg/mL] | Antifungal activity Candida glabrata DSM 11226 MIC [4] [µg/mL] | Antifungal activity Candida lusitaniae DSM 70102 MIC [5] [µg/mL] | Cytotoxicity IC50 CCRF-CEM (CCRF-CEM) [µg/mL] | Cytotoxicity IC50 HepG2 (HepG2) [µg/mL] | Cytotoxicity IC50 LLC-PK1 (LLC-PK1) [µg/mL] | EH10 (Human erythrocytes) [µg/mL]
CCN(CC)CCNC(=S)NC1C(O)C(C)OC(O[C@H]2/C=C/C=C/C=C/C=C/CC/C=C/C=C/[C@H](C)[C@@H](O)[C@@H](C)[C@H](C)OC(=O)C[C@H](O)C[C@H](O)C[C@H](O)CC[C@@H](O)[C@H](O)CC3(O)C[C@H](O)[C@@H](C(=O)O)[C@H](C2)O3)C1O (stereo partly drawn) [Compound N14, N-{3-[2-(N,N-diethylamino)ethyl]thioureidyl}nystatin A1] | 3.21 | 8 | 8 | 4 | 16 | 16 | 4 | >100 | >100 | >100 | –
CC1OC(O[C@H]2/C=C/C=C/C=C/C=C/CC/C=C/C=C/[C@H](C)[C@@H](O)[C@@H](C)[C@H](C)OC(=O)C[C@H](O)C[C@H](O)C[C@H](O)CC[C@@H](O)[C@H](O)CC3(O)C[C@H](O)[C@@H](C(=O)O)[C@H](C2)O3)C(O)C(NC(=S)NCCCN(C)C)C1O (stereo partly drawn) [Compound N17, N-{3-[3-(N,N-dimethylamino)propyl]thioureidyl}nystatin A1] | 2.92 | 4 | 4 | 4 | 8 | 8 | 4 | >100 | >100 | >100 | 156.33
